Assay results as given in ChEMBL document CHEMBL1201862, “PubChem BioAssay data set” (2004).
Active and inactive are the calls of the source.

Assays:
[1] = target: T1, Melanocortin receptor 4 (Homo sapiens, UniProt P32245); assay type: functional, cell-based;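 further: Cell-based assay with luminescence read-out, confirmatory dose-response testing for agonist activity of biased ligands at MC4R; human U2OS cells with tagged receptor and beta-arrestin; potency of agonists that increase receptor coupling to beta-arrestin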
T1 sequence (P32245 whole entry): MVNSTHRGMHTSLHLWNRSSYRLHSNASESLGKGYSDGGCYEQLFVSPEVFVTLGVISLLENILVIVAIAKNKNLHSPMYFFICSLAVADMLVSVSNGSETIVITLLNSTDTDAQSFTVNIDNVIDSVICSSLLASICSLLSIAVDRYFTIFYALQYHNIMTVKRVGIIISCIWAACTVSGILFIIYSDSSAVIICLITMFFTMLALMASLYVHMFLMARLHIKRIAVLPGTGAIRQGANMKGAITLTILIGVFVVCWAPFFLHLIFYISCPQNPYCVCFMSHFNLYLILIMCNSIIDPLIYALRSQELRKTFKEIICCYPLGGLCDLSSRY

[2] = target: 5-hydroxytryptamine receptor 5A (Homo sapiens, UniProt P47898); assay: Counterscreen for agonists of OPRM1-OPRD1 heterodimerization: luminescence-based cell-based high throughput dose response assay to identify agonists of 5-hydroxytryptamine (serotonin) 5A receptor (HTR5A). [Related pubchem assays (depositor defined):AID504326, AID504355, AID504692, AID504904, AID504905]; assay type: functional
5-hydroxytryptamine receptor 5A, sequence (P47898 whole entry): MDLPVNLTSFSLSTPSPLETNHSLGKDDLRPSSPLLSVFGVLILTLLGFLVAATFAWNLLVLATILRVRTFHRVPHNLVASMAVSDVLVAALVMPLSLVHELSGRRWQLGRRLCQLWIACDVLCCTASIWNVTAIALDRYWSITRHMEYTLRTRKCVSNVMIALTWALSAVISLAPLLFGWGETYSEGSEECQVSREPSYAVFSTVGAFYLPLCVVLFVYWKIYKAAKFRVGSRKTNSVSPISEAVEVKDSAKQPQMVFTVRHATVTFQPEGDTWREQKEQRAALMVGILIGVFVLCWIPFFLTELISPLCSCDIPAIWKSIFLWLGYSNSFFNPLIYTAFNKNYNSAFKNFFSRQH

[3] = target: Mu-type opioid receptor (Homo sapiens, UniProt P35372); assay: Counterscreen for agonists of heterodimerization of the mu 1 (OPRM1) and delta 1 (OPRD1) opioid receptors: Luminescence-based cell-based high throughput dose response assay to identify agonists of OPRM1 homodimerization.; assay type: functional;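 further: U2OS cells expressing OPRM1 and beta-arrestin as split beta-galactosidase partners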
Mu-type opioid receptor, sequence (P35372 whole entry): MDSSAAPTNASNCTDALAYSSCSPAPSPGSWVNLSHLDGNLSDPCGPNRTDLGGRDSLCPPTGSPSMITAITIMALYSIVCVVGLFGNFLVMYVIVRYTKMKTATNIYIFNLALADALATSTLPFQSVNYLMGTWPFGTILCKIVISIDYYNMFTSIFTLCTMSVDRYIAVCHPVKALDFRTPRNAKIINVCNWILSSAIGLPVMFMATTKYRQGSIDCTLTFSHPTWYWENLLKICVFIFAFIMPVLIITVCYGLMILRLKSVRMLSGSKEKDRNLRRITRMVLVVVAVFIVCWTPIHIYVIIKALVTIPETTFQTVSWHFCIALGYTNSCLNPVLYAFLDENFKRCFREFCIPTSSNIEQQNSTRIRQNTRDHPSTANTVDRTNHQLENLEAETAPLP

[4] = target: Delta-type opioid receptor (Homo sapiens, UniProt P41143); assay: Counterscreen for agonists of heterodimerization of the mu 1 (OPRM1) and delta 1 (OPRD1) opioid receptors: Luminescence-based cell-based high throughput dose response assay to identify agonists of OPRD1 homodimerization. [Related pubchem assays (depositor defined):AID504326, AID504355, AID504692, AID504904, AID504905]; assay type: functional
Delta-type opioid receptor, sequence (P41143 whole entry): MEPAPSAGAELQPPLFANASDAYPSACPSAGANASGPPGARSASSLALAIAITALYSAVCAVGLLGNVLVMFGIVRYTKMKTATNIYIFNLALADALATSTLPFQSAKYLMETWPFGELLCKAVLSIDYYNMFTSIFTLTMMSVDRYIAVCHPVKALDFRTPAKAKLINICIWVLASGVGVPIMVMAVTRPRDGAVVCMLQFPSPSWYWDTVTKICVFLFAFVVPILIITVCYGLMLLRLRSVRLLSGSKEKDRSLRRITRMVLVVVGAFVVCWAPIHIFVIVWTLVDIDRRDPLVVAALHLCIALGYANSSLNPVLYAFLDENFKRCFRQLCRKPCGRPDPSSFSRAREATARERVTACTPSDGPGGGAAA

[5] = nonselective inhibitors of cellular cAMP signaling, dose response, counter-screen for MC4R biased antagonist project, cell-based, TR-FRET cAMP detection (AID 602305); assay type: functional;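 further: U2OS cells stimulated with forskolin near its EC80 as the cAMP inducer; potency is for inhibition of forskolin-stimulated cAMP signaling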
[6] = target: T1, Melanocortin receptor 4; assay: MC4R antagonist potency on cAMP, dose response, cell-based, TR-FRET, biased antagonists (AID 602298); assay type: functional;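 further: antagonist potency against agonist-stimulated cAMP production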
[7] = target: T2, Exodeoxyribonuclease V (Escherichia coli (strain K12), UniProt P04993+P07648+P08394); assay: E. coli RecBCD inhibitors, dose response, counter-screen for AddAB inhibitor project, absorbance, V66 E. coli, mutant T4 phage (AID 492957); assay type: functional, cell-based, Escherichia coli str. K-12 substr. MG1655
T2 sequence (P04993 whole entry): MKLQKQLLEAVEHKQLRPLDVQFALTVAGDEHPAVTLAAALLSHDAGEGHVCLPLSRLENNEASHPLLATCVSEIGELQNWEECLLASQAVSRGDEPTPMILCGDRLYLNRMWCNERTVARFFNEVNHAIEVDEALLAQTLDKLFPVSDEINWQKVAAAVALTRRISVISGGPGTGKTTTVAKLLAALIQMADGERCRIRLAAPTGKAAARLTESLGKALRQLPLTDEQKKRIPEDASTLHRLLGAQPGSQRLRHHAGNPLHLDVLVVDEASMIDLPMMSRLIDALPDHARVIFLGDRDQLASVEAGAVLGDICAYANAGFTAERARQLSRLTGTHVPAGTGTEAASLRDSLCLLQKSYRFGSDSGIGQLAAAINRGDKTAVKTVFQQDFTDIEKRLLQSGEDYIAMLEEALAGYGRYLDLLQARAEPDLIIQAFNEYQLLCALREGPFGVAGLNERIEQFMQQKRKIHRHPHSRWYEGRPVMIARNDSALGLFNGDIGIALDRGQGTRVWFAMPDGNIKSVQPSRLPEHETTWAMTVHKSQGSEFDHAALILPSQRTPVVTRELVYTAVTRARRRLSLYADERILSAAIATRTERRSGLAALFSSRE
T2 sequence (P07648 whole entry): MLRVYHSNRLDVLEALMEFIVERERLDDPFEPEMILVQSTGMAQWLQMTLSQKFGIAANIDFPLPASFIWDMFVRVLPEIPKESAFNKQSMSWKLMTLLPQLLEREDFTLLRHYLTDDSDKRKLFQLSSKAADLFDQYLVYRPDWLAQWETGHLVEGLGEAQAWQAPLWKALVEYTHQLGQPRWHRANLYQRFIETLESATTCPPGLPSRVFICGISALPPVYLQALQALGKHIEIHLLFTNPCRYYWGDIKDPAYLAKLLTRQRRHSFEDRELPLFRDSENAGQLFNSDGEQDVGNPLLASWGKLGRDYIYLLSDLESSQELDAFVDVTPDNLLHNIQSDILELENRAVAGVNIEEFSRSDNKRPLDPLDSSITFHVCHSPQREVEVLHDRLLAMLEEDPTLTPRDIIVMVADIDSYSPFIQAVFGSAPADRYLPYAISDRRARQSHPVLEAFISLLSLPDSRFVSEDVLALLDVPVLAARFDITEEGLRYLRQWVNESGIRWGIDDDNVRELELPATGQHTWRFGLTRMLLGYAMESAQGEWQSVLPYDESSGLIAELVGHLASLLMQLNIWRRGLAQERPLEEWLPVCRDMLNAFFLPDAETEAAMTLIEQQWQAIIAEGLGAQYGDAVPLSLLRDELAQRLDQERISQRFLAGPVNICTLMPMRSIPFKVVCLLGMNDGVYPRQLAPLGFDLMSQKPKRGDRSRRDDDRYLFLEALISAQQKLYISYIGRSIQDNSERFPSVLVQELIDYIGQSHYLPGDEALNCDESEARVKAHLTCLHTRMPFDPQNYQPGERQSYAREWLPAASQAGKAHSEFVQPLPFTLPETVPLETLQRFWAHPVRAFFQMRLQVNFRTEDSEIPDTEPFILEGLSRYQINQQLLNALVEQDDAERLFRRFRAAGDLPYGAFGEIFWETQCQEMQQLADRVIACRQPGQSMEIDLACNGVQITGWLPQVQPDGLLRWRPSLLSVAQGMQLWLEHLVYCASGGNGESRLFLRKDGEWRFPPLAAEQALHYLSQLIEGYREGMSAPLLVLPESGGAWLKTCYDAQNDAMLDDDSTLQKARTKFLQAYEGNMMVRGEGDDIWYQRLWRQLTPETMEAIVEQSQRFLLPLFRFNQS
T2 sequence (P08394 whole entry): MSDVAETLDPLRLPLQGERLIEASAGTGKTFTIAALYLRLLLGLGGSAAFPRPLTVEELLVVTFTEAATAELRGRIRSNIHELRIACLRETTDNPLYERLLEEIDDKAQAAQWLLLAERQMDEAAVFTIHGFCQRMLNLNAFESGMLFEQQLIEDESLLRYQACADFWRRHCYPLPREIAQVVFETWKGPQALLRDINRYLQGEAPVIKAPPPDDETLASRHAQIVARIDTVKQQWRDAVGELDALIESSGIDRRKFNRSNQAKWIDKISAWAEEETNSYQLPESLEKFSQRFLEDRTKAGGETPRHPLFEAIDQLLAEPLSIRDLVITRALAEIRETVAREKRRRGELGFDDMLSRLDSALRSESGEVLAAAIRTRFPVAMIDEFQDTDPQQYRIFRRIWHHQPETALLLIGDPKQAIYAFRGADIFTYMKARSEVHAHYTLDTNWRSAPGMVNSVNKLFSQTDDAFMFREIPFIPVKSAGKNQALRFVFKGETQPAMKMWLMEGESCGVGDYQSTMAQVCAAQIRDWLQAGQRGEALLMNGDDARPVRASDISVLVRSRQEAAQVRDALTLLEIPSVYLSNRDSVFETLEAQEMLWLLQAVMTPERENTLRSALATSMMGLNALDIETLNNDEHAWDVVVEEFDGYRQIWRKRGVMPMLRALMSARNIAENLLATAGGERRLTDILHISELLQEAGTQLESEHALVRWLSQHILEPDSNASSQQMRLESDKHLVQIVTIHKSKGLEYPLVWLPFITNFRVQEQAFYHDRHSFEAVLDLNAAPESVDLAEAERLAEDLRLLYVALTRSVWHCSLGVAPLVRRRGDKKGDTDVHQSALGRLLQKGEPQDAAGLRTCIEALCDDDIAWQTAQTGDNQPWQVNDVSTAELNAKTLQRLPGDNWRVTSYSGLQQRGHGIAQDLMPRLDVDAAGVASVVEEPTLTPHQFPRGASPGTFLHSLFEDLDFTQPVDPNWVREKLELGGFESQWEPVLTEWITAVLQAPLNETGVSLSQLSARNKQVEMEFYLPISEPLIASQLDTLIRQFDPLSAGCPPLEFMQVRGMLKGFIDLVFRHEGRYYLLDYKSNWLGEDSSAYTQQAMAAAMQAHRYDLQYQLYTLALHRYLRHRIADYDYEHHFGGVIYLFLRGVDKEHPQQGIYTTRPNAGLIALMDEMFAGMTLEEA

[8] = Counterscreen for AddAB inhibitors: absorbance-based bacterial cell-based high throughput dose response assay for inhibitors of bacterial viability. [Related pubchem assays (depositor defined):AID435030, AID449728, AID449731, AID488942, AID488955, AID488956]; assay type: functional
[9] = target: T3, Latent membrane protein 1 (Human herpesvirus 4 (strain B95-8), UniProt P03230); assay: TES1-eGFP NF-kB reporter inhibition versus Tet-On dsRED, dose response, selectivity assay for LMP1 NF-kB inhibitor project, imaging, HEK293T, dual-color eGFP/dsRED, cherry-picks (AID 588398); assay type: functional, cell-based
T3 sequence (P03230 whole entry): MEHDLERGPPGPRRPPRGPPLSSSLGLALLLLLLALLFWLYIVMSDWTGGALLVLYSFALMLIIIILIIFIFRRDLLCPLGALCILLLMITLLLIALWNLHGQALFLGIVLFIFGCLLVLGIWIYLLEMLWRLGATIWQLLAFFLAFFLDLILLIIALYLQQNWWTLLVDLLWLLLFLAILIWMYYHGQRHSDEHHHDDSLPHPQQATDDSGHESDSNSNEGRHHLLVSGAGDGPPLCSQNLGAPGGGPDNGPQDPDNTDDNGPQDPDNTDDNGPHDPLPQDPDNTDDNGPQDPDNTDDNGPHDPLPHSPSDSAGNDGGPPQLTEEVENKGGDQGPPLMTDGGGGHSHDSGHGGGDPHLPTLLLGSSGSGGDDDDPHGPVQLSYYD

[10] = system: HEK293; assay: inhibitors of LMP1-driven NF-kB reporter, dose response, cell-based, HEK293, luciferase, cherry-pick (AID 588343); assay type: functional; conditions: Homo sapiens
[11] = target: T4, Polyadenylate-binding protein 1 (Homo sapiens, UniProt P11940); assay: PABP1 MLLE–PAM2 interaction inhibitors, dose response, miRNA deadenylation inhibitor project, biochemical, fluorescence polarization, Cy5-PAM2 peptide, secondary (AID 602260); assay type: functional; conditions: read-out: IC50_Mean
T4 sequence (P11940 whole entry): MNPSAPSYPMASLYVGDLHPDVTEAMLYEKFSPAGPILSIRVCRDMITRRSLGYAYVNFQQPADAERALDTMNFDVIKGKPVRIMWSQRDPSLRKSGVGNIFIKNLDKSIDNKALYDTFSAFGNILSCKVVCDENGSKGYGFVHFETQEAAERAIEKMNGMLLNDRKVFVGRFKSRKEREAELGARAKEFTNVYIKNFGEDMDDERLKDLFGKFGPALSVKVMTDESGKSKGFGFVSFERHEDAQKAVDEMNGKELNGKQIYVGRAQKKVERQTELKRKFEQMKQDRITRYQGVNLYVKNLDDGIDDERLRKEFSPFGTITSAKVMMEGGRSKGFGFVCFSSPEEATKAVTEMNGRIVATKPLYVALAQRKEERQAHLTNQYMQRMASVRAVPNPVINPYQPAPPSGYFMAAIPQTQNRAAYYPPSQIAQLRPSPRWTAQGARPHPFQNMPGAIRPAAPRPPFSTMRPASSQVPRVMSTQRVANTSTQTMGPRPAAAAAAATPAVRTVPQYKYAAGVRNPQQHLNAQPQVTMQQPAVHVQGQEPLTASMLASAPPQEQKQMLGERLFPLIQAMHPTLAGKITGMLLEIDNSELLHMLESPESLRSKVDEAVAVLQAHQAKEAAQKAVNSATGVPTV

[12] = target: T5, Interleukin-8 (Homo sapiens, UniProt P10145); assay: Dose Response confirmation of uHTS small molecule hits for cystic fibrosis induced NFkb Inhibitors in a TNFa-induced IL8 counterscreen.; assay type: functional; conditions: read-out: IC50_Mean
T5 sequence (P10145 whole entry): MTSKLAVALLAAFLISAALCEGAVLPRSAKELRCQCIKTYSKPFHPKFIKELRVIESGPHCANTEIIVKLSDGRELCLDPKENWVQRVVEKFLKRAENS

[13] = target: T5, Interleukin-8; assay: Dose Response confirmation of uHTS small molecule hits for cystic fibrosis induced NFkb Inhibitors in a PAF-induced IL8 counterscreen.; assay type: functional; conditions: read-out: IC50_Mean
[14] = target: T4, Polyadenylate-binding protein 1; assay: PABP1 MLLE–PAM2 binding inhibitor potency, dose response, biochemical, fluorescence polarization, FITC-PAM2 peptide (AID 602259); assay type: functional; conditions: read-out: IC50_Mean
[15] = system: Vero; assay: cells; assay type: functional; conditions: Chlorocebus sabaeus
[16] = cytotoxicity toward DRD oncogenic fibroblasts, dose response, cell-based, non-viral oncogenic, luminescence (AID 1934); assay type: functional; conditions: Homo sapiens
[17] = system: BJ; assay: cytotoxicity toward BJ-TERT fibroblasts, dose response, cell-based, RAS-independent, luminescence (AID 1933); assay type: functional; conditions: Homo sapiens
[18] = system: BJ; assay: cytotoxicity toward BJ-TERT-LT-ST fibroblasts, dose response, cell-based, RAS-independent, luminescence (AID 1935); assay type: functional; conditions: Homo sapiens;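 further: BJ fibroblasts immortalized with TERT plus LT and ST oncogenes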
[19] = system: BJ; assay: cells; assay type: functional, cell-based; conditions: Homo sapiens

## CC(=O)Nc1cc(-c2cccc(F)c2)cn2c(-c3ccc(F)cc3)cnc12
[1]
  EC50: > 89.2 µM (inactive)

## CSCCC(/C(O)=C(\C#N)c1nc2ccccc2[nH]1)N1C(=O)c2ccccc2C1=O (stereo unspecified)
[2]
  EC50: > 92.4 µM (inactive)
[3]
  EC50: > 92.4 µM (inactive)
[4]
  EC50: > 92.4 µM (inactive)

## COc1cc([N+](=O)[O-])ccc1NC(=S)NC(=O)CC(C)(C)C
[5]
  IC50: > 64.6 µM (inactive)
[6]
  IC50: > 64.6 µM (inactive)

## CCOC(=O)c1c(NC(=O)C2c3ccccc3Oc3ccccc32)sc(C(N)=O)c1C
[5]
  IC50: 32.5 µM (inactive)
[6]
  IC50: > 21.5 µM (inactive)

## CCOc1cccc(/C=N/NC(=O)c2cc(-c3cccn3C)[nH]n2)c1O
[7]
  IC50: > 119 µM (inactive)
[8]
  IC50: > 119 µM (inactive)

## CN(C)CCCN(C(=O)c1ccc(S(=O)(=O)N(C)Cc2ccccc2)cc1)c1nc2c(F)cccc2s1
[2]
  EC50: > 92.5 µM (inactive)
[3]
  EC50: 26.2 µM (inactive)
[4]
  EC50: > 30.8 µM (inactive)

## O=C1NC(c2cccc(OCc3ccccc3)c2)Nc2ccccc21 (stereo unspecified)
[9]
  AC50: 2.82 µM (active)
[10]
  AC50: 84 µM (active)

## CCCCCCCCNS(=O)(=O)CCNCCc1ccccc1
[1]
  EC50: > 89.1 µM (inactive)

## CCN(CC)S(=O)(=O)c1ccc(N2CCOCC2)c(NC(=O)c2ccccc2F)c1
[5]
  IC50: > 64.6 µM (inactive)
[6]
  IC50: > 64.6 µM (inactive)

## O=S1(=O)CCC(NC(=S)SCCOc2ccccc2)C1 (stereo unspecified)
[11]
  IC50: > 66 µM (inactive)
[12]
  IC50: 3.66 µM (active)
[13]
  IC50: 3.07 µM (active)
[14]
  IC50: > 66 µM (inactive)

## CCOc1ccc(-c2cc(C(=O)N/N=C/c3ccc(O)cc3)c3ccccc3n2)cc1
[15]
  CC50: 14.9 µM (active)
[10]
  AC50: 5.12 µM (active)

## CCc1ccc2nc(N(CCCN(C)C)C(=O)c3ccc(S(=O)(=O)N(C)C4CCCCC4)cc3)sc2c1
[16]
  EC50: 7.91 µM (active)
[17]
  EC50: 6.21 µM (inconclusive)
[18]
  EC50: 7.58 µM (active)
[2]
  EC50: > 92.5 µM (inactive)
[3]
  EC50: > 92.5 µM (inactive)
[4]
  EC50: > 92.5 µM (inactive)
[19]
  EC50: 13.4 µM (active)
